Experimental data as given in patent US9943613B2 (priority 2012, dated 2018).

Tests used:
[1] = test system: RES-LTC chondrosarcoma cell line; experiment: Modified MTT assay for metabolic activity; assay type: cell-based; conditions: 48 hour timepoint; for MTT metabolic activity: FIG. 3
Protocol: Assays: Modified MTT assay for metabolic activity (absorbance).
(§1) Assay data analysis: Expressed as % of the positive controls for MTT and picogreen. MTT absorbance measures then normalized to the μgDNA/ml generated by the picogreen assay.
(§2) Cell cultures: RES-LTC chondrosarcoma cell line. Expresses hyaline-like chondrocyte phenotype and reliably produces large, homogeneous cell populations
(§3) Cell cultures in 96 well plates. Each compound, at a fixed concentration, was added in triplicate for each assay. MTT and picogreen assays in separate plates (assays interfere with each other). All plates treated together. Assays run at 48 hour timepoint. Microscopy performed to confirm findings.

rabbit stifle joints = experiment: Single intra-articular injection toxicity model in rabbit stifles; assay type: in vivo, New Zealand White rabbits; conditions: for Synovial inflammation scoring: versus PBS-injected stifles, FIG. 7
Excerpt: Rabbits were euthanized two weeks post-injection. Both left and right stifles were harvested and immediately fixed in 10% neutral buffered formalin, then set for histological processing. Five-micron thick slides from each knee were stained with Hematoxylin & Eosin and Safranin-O.

[2] = test system: RES-LTC chondrosarcoma cell line; experiment: Quantitative picogreen assay for cell proliferation; assay type: cell-based; conditions: 10 mM, 48 hour timepoint, FIG. 4
Protocol: Quantitative picogreen for cell proliferation (μgDNA/ml).
as §1, §2, §3

[3] = test system: glycosaminoglycans (GAG) in the cartilage; experiment: T1 value map versus Safranin-O/fast green histology of cartilage-bone plug equilibrated in contrast agent (GAG targeting); conditions: human tibial plateau cartilage-bone plug equilibrated in contrast agent
Excerpt: Cartilage-bone plug excised from a human tibial plateau that was retrieved from total knee replacement surgery was equilibrated in DAB-4 linked nitroxide citrate. T1 value map (as acquired for FIG. 1) is compared to histology in FIG. 2: • a) T1 value map: orange color is lower T1 value indicating more contrast agent and more glycosaminoglycans (GAG) in the cartilage. • b) Histology of the same specimen stained with Safranin-O/fast green.

human knee = conditions: 10 minutes after intraarticular injection of 25 ml of 5 mM solution in PBS, 3 Tesla, FIG. 9
Protocol: Coronal T1-weighted MR images of a human knee were taken in a human cadaver. Coronal T1-weighted MR contrast images were also taken ex vivo in a human cadaver 10 minutes after intraarticular injection of 25 ml of a 5 mM solution of DAB-4 citrate diluted in PBS. […] All images were performed on a Siemens Skyra 3 Tesla magnet using a 15 channel transmit/receive QED knee coil. (14 cm FOV (field of view); 3 mm thick slice; 384×384 matrix; TR 800 ms; TE 8.6 ms; Turbo factor of 2; receiver bandwidth 350 Hz/pixel.)

[4] = two weeks post-injection, histology

CNC[C@H](O)[C@@H](O)[C@H](O)[C@H](O)CO.CNC[C@H](O)[C@@H](O)[C@H](O)[C@H](O)CO.O=C([O-])CN(CCN(CC(=O)[O-])CC(=O)O)CCN(CC(=O)[O-])CC(=O)O.[Gd+3] [Magnevist]
MTT data normalized to μgDNA/ml (health of the cells) ([1]; 10 mM, FIG. 5): abnormally high
clinical signs of inflammation or lameness (rabbit stifle joints; single intra-articular injection, two weeks observation): No animals presented clinical signs of inflammation or lameness
Modified Mankin scoring (structural damage / joint degeneration) (rabbit stifle joints; two weeks post-injection, histology, FIG. 6): did not uncover any signs of structural damage and/or degenerative response
Synovial inflammation scoring (rabbit stifle joints; [4]): no difference between Magnevist or DAB-4 linked nitroxide and the PBS-injected stifles
Picogreen cell proliferation [2]: low cell proliferation

DAB-dendrimer-(NH-3-CO-PROXYL)4 [DAB-4 linked nitroxide]
agreement of T1 value map with histology stain for GAG concentration [3]: high GAG concentration in the same areas as indicated by DAB-4 linked nitroxide on the T1 value map and the stain on the histology map
MTT metabolic activity ([1]; 1-10 mM): less metabolic activity than positive controls but greater than for DAB-8 linked nitroxide
Synovial inflammation scoring (rabbit stifle joints; [4]): no difference between Magnevist or DAB-4 linked nitroxide and the PBS-injected stifles

DAB-dendrimer-(NH-3-CO-PROXYL)8 [DAB-8 linked nitroxide]
MTT metabolic activity ([1]; concentrations above 1 mM): less metabolic activity than positive controls (untreated), or DAB-4 linked nitroxide and Magnevist

Citric Acid Salt of DAB-4 Linked Nitroxide [DAB-4 linked nitroxide citrate]
agreement of T1 value map with histology stain for GAG concentration [3]: high GAG concentration in the same areas indicated by DAB-4 linked nitroxide on the T1 value map and the stain on the histology map
T1-weighted MR contrast of joint fluid and cartilage surfaces (human knee): the joint fluid (asterisk) is now bright and outlines the cartilage surfaces
detection of cartilage defect on T1-weighted MR image (human knee): A partial thickness cartilage defect (arrow) is easily identified
